Series [1] concerns human serum albumin (HSA). As to conditions: 49 (SI ref 1,2); cited from earlier work.
Series [2] relates to plasma proteins. As to conditions: literature data; 45−47 (SI ref 4–7); cited from earlier work.
The target in series [3] is T1, human serum albumin (HSA) (Homo sapiens, UniProt P02768). Description: HSA binding by biomimetic chromatography on immobilized HSA column (Chiralpak-HSA).
Series [4] addresses T1, human serum albumin (HSA). Description: UV-pH titration in the presence of HSA (pKa,HSA and pKa shift). As to conditions: |pKa − pKa,HSA|, 33.3 μM HSA 1:1.
Method: Next, we investigated HSA binding of APIs by measuring their pKa values in aqueous medium in the absence of HSA and in the presence of HSA (pKa,HSA). […] The UV-pH titrations were performed using a fully automated SiriusT3 instrument (Pion Inc., Forest Row, U.K.). Spectrophotometric determination of pKa values was performed using the built-in fast UV pKa method, the absorbance changes during the titrations were monitored by the dip-probe absorption spectroscopy (D-PAS) method,[52],[53] and evaluation and calculation of pKa values were performed by the SiriusT3Refine software (version 1.1.3.0., Pion Inc., Forest Row, U.K.).
For series [5], the target named is T1, human serum albumin (HSA). Nature of the series: HSA binding by rapid equilibrium dialysis (RED). Details: Albumin from human serum (lyophilized powder); purchased Sigma-Aldrich Co., Ltd. (Budapest, Hungary) A9511; host or cells: human serum (natural source). As to conditions: 10 µM compound, 4 g/L HSA in PBS pH 7.4, 37 °C, 4.5 hours. Type of series: in vitro ADME. (In equilibrium dialysis only unbound substance equilibrates across the membrane.)
Method: Rapid equilibrium dialysis measurements.
The Rapid Equilibrium Dialysis (RED) Device (Thermo Scientific™) was used for the
determination of HSA binding % of reference APIs. RED Device inserts (8K MWCO) were fitted
into the reusable Teflon base plate, then 200 µL of samples were placed into the donor chamber
(indicated by the colored retainer ring). Sample solutions were prepared at 10 µM initial
concentration (0.1% DMSO; 0.9% MeCN) by adding 30 µL of 10 mM DMSO stock solutions to
270 µL MeCN, producing a 1 mM solution, then adding 10 µL of the 1 mM solution to 990 µL of
Then 350 µLs of dialysis buffer (PBS,
pH 7.4) were added to the buffer chambers, the unit was covered with sealing tape and incubated
at 37 °C on an orbital shaker (at 300rpm) for 4.5 hours. After incubation the seal was removed and
50 µL aliquots of post-dialysis samples from the donor and buffer chambers were pipetted to
separate microcentrifuge tubes. A corresponding 50 µL of HSA solution was added to the buffer
samples and an equal volume of buffer (PBS, pH 7.4) was added to the donor samples to create
analytically identical sample matrices. Then 300 µLs of precipitation buffer (cold acetonitrile/
water (90:10 v/v%), containing 0.1 % formic acid and 1 µM verapamil as internal standard) were
added to each sample to precipitate the protein and release compounds. The samples were vortexed
and incubated on ice for 30 mins, then centrifuged for 10 mins at 14000×g. After centrifugation
the supernatants (200 µL) were transferred to 96-well polypropylene plates (Agilent, Waldbronn,
Germany) for LC-MS analysis. Each compound was measured in triplicate. Test compound
concentrations in the donor and buffer chambers were determined from peak areas relative to the internal standard. The percentage of the test compound bound was calculated using the following

A short description of series [6]: UV-pH titration, pKa in aqueous medium (SiriusT3 fast UV pKa method). As to conditions: ISA-water 0.15 M KCl, 25.0 °C.

We go through four compounds from article PMC7307925, “Human Serum Albumin Binding in a Vial: A Novel UV-pH Titration Method To Assist Drug Design” (Journal of Medicinal Chemistry, 2020).

In general, pKa refers to the negative logarithm of the acid dissociation constant.

“And” between values parts separate entries of the source, which are not always exact repeats. Equal entries are not always repeated. Where two headings read alike, the source gives them in different places. Marks after values point to notes of the source that are not given here.

T1 sequence (P02768 25-609): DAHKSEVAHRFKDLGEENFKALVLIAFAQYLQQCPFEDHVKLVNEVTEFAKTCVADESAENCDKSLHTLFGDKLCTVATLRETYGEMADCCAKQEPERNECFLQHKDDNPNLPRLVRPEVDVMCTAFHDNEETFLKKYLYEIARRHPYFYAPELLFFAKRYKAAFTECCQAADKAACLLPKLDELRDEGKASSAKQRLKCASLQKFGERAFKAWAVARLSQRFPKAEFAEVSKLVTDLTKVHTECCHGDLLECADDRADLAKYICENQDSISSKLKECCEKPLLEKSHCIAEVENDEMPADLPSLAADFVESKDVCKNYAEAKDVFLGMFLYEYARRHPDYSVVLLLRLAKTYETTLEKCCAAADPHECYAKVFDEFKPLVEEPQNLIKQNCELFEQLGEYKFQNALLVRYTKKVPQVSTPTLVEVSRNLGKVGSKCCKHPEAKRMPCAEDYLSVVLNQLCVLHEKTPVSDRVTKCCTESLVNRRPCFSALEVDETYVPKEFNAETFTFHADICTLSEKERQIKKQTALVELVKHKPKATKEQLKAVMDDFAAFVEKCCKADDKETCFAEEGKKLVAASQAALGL

On to `NC(N)=Nc1nc(CSCCC(N)=NS(N)(=O)=O)cs1` [Famotidine], for which the “HSA% (HPLC), literature data” value in series [1] is on record as 14.5%. Moreover, the PPB% in series [2] is reported as 20%. In addition, the “HSA% (HPLC), experimental data” value in series [3] is on record as 25.1%. Moreover, the results for the “ΔpKa1 of UV-pH titration (ΔpKa of monoprotic APIs)” value (“ΔpKa1 of UV-pH titration” below) in series [4] and in series [4] (listed as famotidine) were 0.02 and 0.02 ± 0.03, respectively. For the same compound, the “HSA% (RED)” value in series [5] came to 4.4 ± 2.6%.
With `CN1C(C(=O)Nc2ccccn2)=C(O)c2sc(Cl)cc2S1(=O)=O` [Lornoxicam], the “HSA% (HPLC), experimental data” value in series [3] is recorded as 100%; in series [3] (listed as lornoxicam), 100.0%. Moreover, the pKa in series [6] (ionic strength adjusted water (0.15 M KCl), without HSA, Exp. aqueous pKa1 (pKa of monoprotic APIs), absence of HSA) stood at 0.55 ± 0.06; in series [6] (ionic strength adjusted water (0.15 M KCl), without HSA, Exp. aqueous pKa2, absence of HSA) it was 5.09 ± 0.01. Further, the “ΔpKa1 of UV-pH titration” value in series [4] is 0.87 and 0.87 ± 0.23; in series [4] (listed as lornoxicam) it was 0.87 ± 0.23 ^d. Also, the “ΔpKa2 of UV-pH titration” value in series [4] is recorded as 1.00; in series [4] (listed as lornoxicam), 1.00 ± 0.07. For the same compound, in series [5], the “HSA% (RED)” value was 98.0 ± 0.2%.
For the compound `COc1cc(Cc2cnc(N)nc2N)cc(OC)c1OC` [Trimethoprim], the “HSA% (HPLC), literature data” value in series [1] was 37.6%. The PPB% in series [2] was 37.5% and 41.5%. Besides, the “HSA% (HPLC), experimental data” value in series [3] came to 37.3%. Further, the “ΔpKa1 of UV-pH titration” value in series [4] was determined as 0.01; in series [4] (listed as trimethoprim), 0.01 ± 0.02. In series [5], the “HSA% (RED)” value came out at 3.1 ± 4.6%.
In the case of `CNC(=O)Oc1ccc2c(c1)[C@]1(C)CCN(C)[C@@H]1N2C` [Physostigmine], the results for the “HSA% (HPLC), experimental data” value in series [3] and in series [3] (listed as physostigmine) were 20% and 20.0%, respectively. Besides, the pKa in series [6] (Exp. aqueous pKa1 (pKa of monoprotic APIs), absence of HSA) came to 8.15 ± 0.02. Further, the “ΔpKa1 of UV-pH titration” value is listed as 0.05 in series [4] and 0.05 ± 0.03 in series [4] (listed as physostigmine). Besides, the “HSA% (RED)” value in series [5] amounted to 9.7 ± 6.6%.
